Laboratory results reported in patent publication US8367873B2, “Phenyl-substituted bicyclooctane-1,3-dione derivatives” (Bayer Cropscience AG, priority 2008, dated 2013).

Assays:
Format in all cases: in vivo
[1] = test system: monocotylidonous and dicotylidonous weed and crop plants; assay: Herbicidal pre-emergence action (other test plants); settings: pre-emergence method, 80 g/ha, greenhouse, visual assessment vs untreated controls
Method in brief: (§1)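 Visual percent effect relative to untreated controls (0% = like control, 100% = dead) assessed three weeks after treatment in the greenhouse. Compounds, as wettable powders in water (600 l/ha, 0.2% wetting agent), were sprayed at different amounts onto covering soil over seeds sown in sandy loam.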

Setaria viridis [2] = assay: Herbicidal post-emergence action; settings: post-emergence method, 80 g/ha
Method in brief: (§2)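 Post-emergence spray test: wettable-powder formulations are applied at different amounts to one-leaf-stage plants in 600 l/ha water containing 0.2% wetting agent. After roughly three weeks in the greenhouse, percent effect is rated visually relative to untreated controls.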

Alopecurus myosuroides [3] = assay: Herbicidal post-emergence action; settings: post-emergence method, 80 g/ha
Method in brief: as §2

Echinocloa crus-galli [4] = assay: Herbicidal post-emergence action; settings: post-emergence method, 80 g/ha
Method in brief: as §2

Lolium multiflorum [5] = assay: Herbicidal post-emergence action; settings: post-emergence method, 80 g/ha
Method in brief: as §2

[6] = test system: monocotylidonous and dicotylidonous weed and crop plants; assay: Herbicidal post-emergence action (other test plants); settings: post-emergence method, 80 g/ha
Method in brief: as §2

cereals = assay: Container trials with cereals in the greenhouse, use of safeners (Mefenpyr 1 day prior to herbicide application)
Protocol: Seeds of monocotylidonous and dicotylidonous weed and crop plants are placed in sandy loam in wood fibre pots, covered with soil and cultivated in a greenhouse under good growth conditions. Two to three weeks after sowing, the test plants are treated at the one-leaf stage. The test compounds, formulated as wettable powders (WP), are then with a water application rate of 600 l/ha (converted), with 0.2% of wetting agent added, sprayed onto the green parts of the plants in different amounts. After the test plants have been kept in the greenhouse under optimum growth conditions for about three weeks, the effect of the preparations is assessed visually in comparison to untreated controls (herbicidal effect in percent: 100% effect=the plants have died, 0% effect=like control plants).
If it is to be additionally tested as to whether safeners can improve the plant compatibility of test substances in the case of crop plants, the following options are used for applying the safeners: • Seeds of the crop plants are, before sowing, dressed with safener substance (the amount of safener stated in percent, based on the weight of the seed) • Before the application of the test substances, the crop plants are sprayed with the safener at a certain application rate per hectare (usually one day before the application of the test substances) • The safener is applied together with the test substance as a tank mix (the amount of safener stated in g/ha or as a ratio, based on the herbicide).
Container Trials with Cereals in the Greenhouse

Setaria viridis [7] = assay: Herbicidal pre-emergence action; settings: pre-emergence method, 80 g/ha, greenhouse, visual assessment vs untreated controls
Method in brief: as §1

Alopecurus myosuroides [8] = assay: Herbicidal pre-emergence action; settings: pre-emergence method, 80 g/ha, greenhouse, visual assessment vs untreated controls
Method in brief: as §1

Echinocloa crus-galli [9] = assay: Herbicidal pre-emergence action; settings: pre-emergence method, 80 g/ha, greenhouse, visual assessment vs untreated controls
Method in brief: as §1

Lolium multiflorum [10] = assay: Herbicidal pre-emergence action; settings: pre-emergence method, 80 g/ha, greenhouse, visual assessment vs untreated controls
Method in brief: as §1

[11] = 10 days after application, 12.5 g of a.i./ha
[12] = 10 days after application, 25 g of a.i./ha
[13] = 10 days after application, 50 g of a.i./ha
[14] = 28 days after application, 50 g of a.i./ha
[15] = 28 days after application, 100 g of a.i./ha
[16] = 28 days after application, 12.5 g of a.i./ha
[17] = 28 days after application, 25 g of a.i./ha

| Structure (SMILES) | herbicidal effect AVEFA [1] [%] | herbicidal effect against SETVI (Setaria viridis) (Setaria viridis [2]) [%] | herbicidal effect against ALOMY (Alopecurus myosuroides) (Alopecurus myosuroides [3]) [%] | herbicidal effect against ECHCG (Echinochloa crus-galli) (Echinocloa crus-galli [4]) [%] | herbicidal effect against LOLMU (Lolium multiflorum) (Lolium multiflorum [5]) [%] | herbicidal effect against AVEFA (Avena fatua) [6] [%] | Summer wheat observed (%) (cereals; [11]) | Summer wheat observed (%) (cereals; [12]) | Summer wheat observed (%) (cereals; [13]) | herbicidal effect SETVI (Setaria viridis [7]) [%] | herbicidal effect ALOMY (Alopecurus myosuroides [8]) [%] | herbicidal effect ECHCG (Echinocloa crus-galli [9]) [%] | herbicidal effect LOLMU (Lolium multiflorum [10]) [%] | Summer barley observed (%) (cereals; [14]) | Summer barley observed (%) (cereals; [15]) | Summer wheat observed (%) (cereals; [16]) | Summer wheat observed (%) (cereals; [17]) | Summer wheat observed (%) (cereals; [14]) | Summer barley observed (%) (cereals; [17]) | Summer wheat observed (%) (cereals; [15]) | also measured |
| --- | --- | --- | --- | --- | --- | --- | --- | --- | --- | --- | --- | --- | --- | --- | --- | --- | --- | --- | --- | --- | --- |
| CCc1cc(C)cc(CC)c1C1=C(O)C2CC3(CC2C1=O)OCC(C)O3 (mixture of isomers) [I-a-10] | 50 | 90 | 90 | 100 | 100 | 80 | 30 | 50 | 60 | 60 | 70 | 80 | 100 |  |  |  |  |  |  |  |  |
| CCOC(=O)OC1=C(c2c(CC)cc(C)cc2CC)C(=O)C2CC3(CC12)OC(C)CC(C)O3 (mixture of isomers) [I-c-10] | 80 | 90 | 90 |  | 100 | 100 |  |  |  | 90 | 100 | 100 | 100 | 50 | 95 | 15 | 50 | 95 |  |  |  |
| CCc1cc(C)cc(CC)c1C1=C([O-])C2CC3(CC2C1=O)OC(C)CC(C)O3.[Na+] (mixture of isomers) [I-f-19] | 60 | 100 | 100 | 100 | 100 | 100 |  |  |  | 100 | 100 | 100 | 100 | 20 | 50 | 20 | 90 | 97 | 10 | 99 | Summer barley observed (%) (cereals; [16]): 10% |
| CCc1cc(C)cc(CC)c1C1=C(O)[C@H]2CC3(C[C@H]2C1=O)OCCCO3 (relative stereo) [I-a-11] | 50 | 100 | 90 | 100 | 100 | 90 | 30 | 50 | 70 | 70 | 90 | 100 | 100 | 8 | 10 | 10 | 50 | 60 |  | 70 |  |
| CCc1cc(C)cc(CC)c1C1=C(O)[C@H]2CC3(C[C@H]2C1=O)OCCCCO3 (relative stereo) [I-a-13] | 80 | 90 | 90 | 100 | 100 | 90 | 40 | 50 | 60 | 90 | 90 | 100 | 100 |  |  |  |  |  |  |  |  |
| CCc1cc(C)cc(CC)c1C1=C(O)[C@H]2CC3(C[C@H]2C1=O)OCC=CCO3 (relative stereo) [I-a-14] | 80 | 100 | 90 | 100 | 100 | 90 | 50 | 60 | 60 | 90 | 100 | 100 | 100 | 10 | 20 | 10 | 30 | 30 | 8 | 70 | Summer barley observed (%) (cereals; [16]): 5% |
| CCc1cc(C)cc(CC)c1C1=C(O)[C@H]2CC3(C[C@H]2C1=O)OCC(C)CO3 (relative stereo) [I-a-25] | 70 | 100 | 100 | 100 | 100 | 100 |  |  |  | 90 | 100 | 90 | 100 | 60 | 85 | 10 | 30 | 70 |  | 85 |  |
| CCc1cc(C)cc(CC)c1C1=C(OC(=O)OC(C)C)[C@H]2C[C@]3(COC(C)(C)O3)C[C@H]2C1=O (relative stereo) [I-c-3] | 80 | 80 | 90 | 90 | 100 | 80 |  |  |  | 70 | 100 | 40 | 100 | 30 | 95 | 10 | 20 | 60 | 15 | 99 |  |
| CCOC(=O)OC1=C(c2c(CC)cc(C)cc2CC)C(=O)[C@@H]2CC3(C[C@H]12)OCCO3 (relative stereo) [I-c-7] | 70 | 80 | 90 | 100 | 100 | 70 | 40 | 50 | 60 | 70 | 100 | 100 | 90 |  |  | 10 | 30 | 30 |  | 30 |  |
| CCc1cc(C)cc(C)c1C1=C(O)C2CC3(CC2C1=O)OCCCO3 (centres unmarked) [I-a-58] | 70 | 100 | 100 | 100 | 100 |  |  |  |  | 100 | 70 | 100 | 100 | 10 | 15 | 10 | 15 | 20 | 5 | 60 |  |
